Our source for the toxic effects values is patent EP2198878A1, “Polypeptide bombesin antagonists” (University Of Miami, priority 2008, dated 2010).

Peptide text beside a SMILES is read from it. * marks the point of attachment. Leuψ(CH2N)ThzNH2 = CC(C)C[C@@H](CN1CSC[C@H]1C(N)=O)N*; Hydrocinnamoyl = O=C(CCc1ccccc1)*

This series relates to Human SK-Hep-1 cancers. Kind of series: SK-Hep-1 human hepatocellular carcinoma xenograft in nude mice. In kind it is in vivo, mouse. The conditions noted are these: at therapeutic doses. On the procedure:
Human SK-Hep-1 cancers were transplanted sc. into both flank areas of female nude mice. The treatment started 47 days after transplantation as follows: Group 1: Control; Group 2: Peptide 14, 20 µg/day;. There were 8 animals in each group. The substances were dissolved in 0.1% dimethyl sulfoxide (DMSO) and diluted with 10% propylene glycol in water. Amounts of 0.1 ml of the solutions were injected once daily sc. The controls received vehicle only. Tumors and body weights were measured weekly and tumor volume was calculated. The experiment was terminated on day 135.
A general note: Xenograft models place foreign cells or tissue in a host animal.

With `CC(C)C[C@@H](CN1CSC[C@H]1C(N)=O)NC(=O)[C@H](Cc1c[nH]cn1)NC(=O)CNC(=O)[C@@H](NC(=O)[C@H](C)NC(=O)[C@H](Cc1c[nH]c2ccccc12)NC(=O)[C@H](CCC(N)=O)NC(=O)CCc1ccccc1)C(C)C` [Peptide 14, Hca-Gln-Trp-Ala-Val-Gly-His-Leu-ψ-Tac-NH2] (Hydrocinnamoyl-QWAVGH-{Leuψ(CH2N)ThzNH2}), the toxic effects entry was “no toxic effects”.
